Data reported in patent US12214036B2, “Combination therapy comprising AXL/MER and PD-1/PD-L1 inhibitors” (Incyte Corporation, priority 2020, dated 2025).

Test system: CTG-2041 tumors
Assay: Sarcoma PDX model CTG-2041 (angiosarcoma)
Type: in vivo, athymic nude mice
Procedure: Macrophages were allowed to thaw on ice before being lysed with 250 μL/well of 1× Lysis Buffer (Cell Signaling Technology; #9803) and Halt protease and phosphatase inhibitors (ThermoFisher Scientific) for 1 hour at 4° C. The lysed cells were scraped and transferred to an Eppendorf vial on ice. The lysates were centrifuged at 12,700 rpm for 15 minutes at 4° C. PDX tumors were weighed and homogenized with lysis buffer supplemented with protease and phosphatase inhibitor cocktails (Roche, Basel, Switzerland; #11836170001). Tumors were lysed on ice for 30 minutes, followed by centrifugation at 13,000 rpm for 10 minutes. Protein lysates were quantified using BCA Protein Assay Kit (Pierce, ThermoFisher Scientific; #23225). Lysates were transferred to a new tube together with 6× Laemmli SDS sample buffer (Alfa Aesar, Haverhill, Mass.) and the samples were heated for 6 minutes at 95° C. Approximately 50 μg of protein sample was loaded per well using Novex™ 8-16% Tris-Glycine Mini Gels or 4-12% Tris-Glycine Novex WedgeGels (Invitrogen, Carlsbad, Calif.). The proteins were transferred to a nitrocellulose membrane using an iBlot (ThermoFisher Scientific) dry blotting system. The membranes were blocked with 0.5% nonfat dry milk in wash buffer (100 mM NaCl, 10 mM Tris-HCl, pH 8.0, 0.1% Tween 20) for 1 hour at room temperature. The primary antibody used for pMER was from PhosphoSolutions (Aurora, Colo.; #p186-749). The remaining antibodies were obtained from Cell Signaling Technology: MER (#4319), pAXL (#5724), AXL, (#4566), GAS6 (#67202), pAKT (#4060), AKT (#9272), and β-Actin (#4970). Primary antibodies were added at 1:500 and 1:1000, respectively, in 0.5% milk/wash buffer and rocked overnight at 4° C. The membranes were washed three times in wash buffer before incubation with the secondary antibody (anti-rabbit IgG1-HRP; Cell Signaling Technology) at 1:2500 in 0.5% milk/wash buffer for 2 hours at room temperature. The membranes were washed again before the bands were detected with SuperSignal West Dura Extended Duration Chemiluminescent substrate (ThermoFisher Scientific) and were visualized using the Fluorochem M Digital Imager (Protein Simple, San Jose, Calif.).
MBT-2 cells were obtained from the Japanese Collection of Research Bioresources Cell Bank and were maintained in DMEM supplemented with 10% FBS. MC38 cells were obtained from the NCI. 4T1 cells were obtained from ATCC and maintained in RPMI media supplemented with 10% FBS. For MBT-2 experiments, 5×10^5 MBT-2 cells were inoculated subcutaneously into the right hind flank of 6- to 8-week-old C3H mice or athymic nude mice (Charles River Laboratories, Wilmington, Mass.). For MC38 studies, 12-week old female C57BL/6 mice were inoculated with brei of MC38 tumors (in-vivo passage 6) into the right hind flank. For 4T1 studies, 7.5×10^5 4 T1 cells were inoculated subcutaneously into the right hind flank of 6- to 8-week-old female BALB/c mice or athymic nude mice (Charles River Laboratories). Mice were randomized by tumor volume with n=10-12 per group. Compound 1 was dosed orally twice a day (BID) continuously from the start to the end of study. In the MC38 study, anti-programmed death ligand 1 (PD-L1) (BE0101, Bio X Cell, West Lebanon, NH) was dosed intraperitoneally at 15 mg/kg twice a week. […] Mice were monitored for tumor growth and overt tolerability over the course of the experiment. […]

SMILES: CC(C)C(=O)N1CCC(c2cc(-c3ccc(NC(=O)c4cn(C(C)C)c(=O)n(-c5ccccn5)c4=O)cc3)c3c(N)ncnn23)CC1 [Compound 1, N-(4-(4-Amino-7-(1-isobutyrylpiperidin-4-yl)pyrrolo[1,2-f][1,2,4]triazin-5-yl)phenyl)-1-isopropyl-2,4-dioxo-3-(pyridin-2-yl)-1,2,3,4-tetrahydropyrimidine-5-carboxamide]
- TGI (CTG-2041, equivalent activity at 10, 30 and 100 mg/kg BID oral, FIG. 9A): 95%
- GAS6 levels in tumors (Western blot) (CTG-2041 tumors, FIG. 9D): increased
- pAKT in tumors (Western blot) (CTG-2041 tumors, FIG. 9D): inhibited
- pAXL and pMER in tumors (Western blot) (CTG-2041 tumors, FIG. 9D): inhibited
- total MER levels in tumors (Western blot) (CTG-2041 tumors, FIG. 9D): increased
